Assay in all cases: biochemical
Holding throughout (type): binding

Test [1] addresses T1, panel of 442 kinases (Homo sapiens, UniProt O14730).
T1 construct: purchased Ambit Biosciences (scanMAXX KINOMEscan)
T1 sequence (O14730 1-519): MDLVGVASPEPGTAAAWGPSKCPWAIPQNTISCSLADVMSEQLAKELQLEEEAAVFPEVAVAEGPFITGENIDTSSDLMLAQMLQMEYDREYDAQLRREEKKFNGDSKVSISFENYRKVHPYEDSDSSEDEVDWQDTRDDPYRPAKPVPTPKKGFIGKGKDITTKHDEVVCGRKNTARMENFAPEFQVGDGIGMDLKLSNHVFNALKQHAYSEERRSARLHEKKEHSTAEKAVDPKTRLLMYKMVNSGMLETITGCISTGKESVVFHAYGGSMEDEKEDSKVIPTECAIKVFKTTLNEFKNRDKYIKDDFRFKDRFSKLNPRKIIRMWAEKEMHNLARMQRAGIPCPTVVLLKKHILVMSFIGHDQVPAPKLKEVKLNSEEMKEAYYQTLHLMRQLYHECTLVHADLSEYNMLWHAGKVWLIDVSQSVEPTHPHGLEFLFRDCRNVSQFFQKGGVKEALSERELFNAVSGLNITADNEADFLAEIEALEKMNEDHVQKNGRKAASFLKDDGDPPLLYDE
To be noted: kinase RIOK3; for remaining activity at 1 µM: read-out: RIOK3 (% of control at 1 µM).

Test [2] addresses T2, panel of 442 kinases (Homo sapiens, UniProt O75460).
T2 construct: purchased Ambit Biosciences (scanMAXX KINOMEscan)
Particulars: ERN1; for remaining activity at 1 µM: read-out: % of control at 1 µM.

Test [3] deals with T3, panel of 442 kinases (Homo sapiens, UniProt P10721, L576P).
T3 construct: purchased Ambit Biosciences (scanMAXX KINOMEscan)
To be noted: kinase KIT(L576P); for remaining activity at 1 µM: read-out: % of control at 1 µM.

The target of test [4] is T4, panel of 442 kinases (Homo sapiens, UniProt P27448).
T4 construct: purchased Ambit Biosciences (scanMAXX KINOMEscan)
Particulars: kinase MARK3; for remaining activity at 1 µM: read-out: % of control at 1 µM.

The target in test [5] is T5, panel of 442 kinases (Homo sapiens, UniProt P57078).
T5 construct: purchased Ambit Biosciences (scanMAXX KINOMEscan)
T5 sequence (P57078 1-832): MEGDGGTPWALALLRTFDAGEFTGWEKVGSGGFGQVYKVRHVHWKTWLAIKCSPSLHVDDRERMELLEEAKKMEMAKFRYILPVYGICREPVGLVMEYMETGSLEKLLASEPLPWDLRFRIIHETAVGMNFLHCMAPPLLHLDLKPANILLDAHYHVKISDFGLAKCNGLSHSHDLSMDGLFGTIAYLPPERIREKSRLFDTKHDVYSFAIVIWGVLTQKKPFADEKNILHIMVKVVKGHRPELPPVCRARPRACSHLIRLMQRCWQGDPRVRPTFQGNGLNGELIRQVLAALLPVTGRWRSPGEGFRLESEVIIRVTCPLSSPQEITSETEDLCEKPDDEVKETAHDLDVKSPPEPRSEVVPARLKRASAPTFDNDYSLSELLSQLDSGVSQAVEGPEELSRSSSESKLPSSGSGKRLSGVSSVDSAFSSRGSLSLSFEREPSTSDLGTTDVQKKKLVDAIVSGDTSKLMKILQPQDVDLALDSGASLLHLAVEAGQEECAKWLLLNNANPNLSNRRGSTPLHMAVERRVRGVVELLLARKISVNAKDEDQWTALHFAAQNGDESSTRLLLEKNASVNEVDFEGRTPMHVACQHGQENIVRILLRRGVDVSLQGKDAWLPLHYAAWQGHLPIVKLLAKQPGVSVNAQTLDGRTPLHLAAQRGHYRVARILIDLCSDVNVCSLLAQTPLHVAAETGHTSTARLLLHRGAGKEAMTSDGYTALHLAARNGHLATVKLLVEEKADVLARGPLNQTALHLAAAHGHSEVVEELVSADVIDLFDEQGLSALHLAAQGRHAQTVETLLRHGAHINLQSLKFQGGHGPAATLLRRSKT
Particulars: kinase RIPK4; for remaining activity at 1 µM: read-out: RIPK4 (% of control at 1 µM).

Test [6] addresses T6, panel of 442 kinases (Homo sapiens, UniProt Q59H18).
T6 construct: purchased Ambit Biosciences (scanMAXX KINOMEscan)
T6 sequence (Q59H18 1-835): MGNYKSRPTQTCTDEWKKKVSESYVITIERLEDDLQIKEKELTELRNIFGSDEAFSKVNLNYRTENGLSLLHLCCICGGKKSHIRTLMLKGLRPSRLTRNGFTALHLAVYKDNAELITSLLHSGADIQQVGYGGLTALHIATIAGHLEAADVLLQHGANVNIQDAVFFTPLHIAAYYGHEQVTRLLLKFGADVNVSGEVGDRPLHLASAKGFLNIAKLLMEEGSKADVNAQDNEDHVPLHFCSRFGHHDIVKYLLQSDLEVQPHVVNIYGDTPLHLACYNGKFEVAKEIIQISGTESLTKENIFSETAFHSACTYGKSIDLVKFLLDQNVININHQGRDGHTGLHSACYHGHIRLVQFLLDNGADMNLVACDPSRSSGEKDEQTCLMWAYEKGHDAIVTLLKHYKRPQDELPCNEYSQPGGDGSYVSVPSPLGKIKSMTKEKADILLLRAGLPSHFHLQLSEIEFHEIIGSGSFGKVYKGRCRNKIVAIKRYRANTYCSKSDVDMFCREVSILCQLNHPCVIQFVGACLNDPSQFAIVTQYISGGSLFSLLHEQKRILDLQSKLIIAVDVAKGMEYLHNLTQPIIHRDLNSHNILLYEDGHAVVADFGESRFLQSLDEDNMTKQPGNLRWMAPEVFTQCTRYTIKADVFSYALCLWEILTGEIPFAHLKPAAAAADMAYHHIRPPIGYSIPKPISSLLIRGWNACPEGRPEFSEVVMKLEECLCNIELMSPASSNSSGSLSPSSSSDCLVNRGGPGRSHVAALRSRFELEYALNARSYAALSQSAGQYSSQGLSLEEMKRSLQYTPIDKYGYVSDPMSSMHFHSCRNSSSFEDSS
Particulars: kinase TNNI3K; for remaining activity at 1 µM: read-out: TNNI3K (% of control at 1 µM).

Test [7] deals with T7, panel of 442 kinases (Homo sapiens, UniProt Q9HC98).
T7 construct: purchased Ambit Biosciences (scanMAXX KINOMEscan)
To be noted: kinase NEK6; for remaining activity at 1 µM: read-out: % of control at 1 µM.

[8] abbreviates: 10 µM, read-out: % of control at 10 µM.

T4 sequence (P27448 whole entry): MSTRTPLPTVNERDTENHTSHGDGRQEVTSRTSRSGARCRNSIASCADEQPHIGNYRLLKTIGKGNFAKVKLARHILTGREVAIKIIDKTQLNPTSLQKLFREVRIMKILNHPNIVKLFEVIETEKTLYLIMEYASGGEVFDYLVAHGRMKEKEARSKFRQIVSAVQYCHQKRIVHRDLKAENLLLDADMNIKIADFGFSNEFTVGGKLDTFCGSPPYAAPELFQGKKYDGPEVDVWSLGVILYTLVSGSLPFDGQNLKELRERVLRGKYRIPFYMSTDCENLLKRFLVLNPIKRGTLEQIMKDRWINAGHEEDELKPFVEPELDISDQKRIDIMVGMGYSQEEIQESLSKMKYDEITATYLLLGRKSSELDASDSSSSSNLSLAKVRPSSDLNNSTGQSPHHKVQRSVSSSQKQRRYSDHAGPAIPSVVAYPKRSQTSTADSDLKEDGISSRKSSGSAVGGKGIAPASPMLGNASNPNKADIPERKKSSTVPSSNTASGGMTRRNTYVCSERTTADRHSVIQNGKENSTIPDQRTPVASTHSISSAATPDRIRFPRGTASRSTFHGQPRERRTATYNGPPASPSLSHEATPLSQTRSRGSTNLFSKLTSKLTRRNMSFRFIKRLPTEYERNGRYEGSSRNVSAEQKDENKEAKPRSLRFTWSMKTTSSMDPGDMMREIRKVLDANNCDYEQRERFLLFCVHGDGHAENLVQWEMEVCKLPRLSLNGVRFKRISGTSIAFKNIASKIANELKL
T7 sequence (Q9HC98 whole entry): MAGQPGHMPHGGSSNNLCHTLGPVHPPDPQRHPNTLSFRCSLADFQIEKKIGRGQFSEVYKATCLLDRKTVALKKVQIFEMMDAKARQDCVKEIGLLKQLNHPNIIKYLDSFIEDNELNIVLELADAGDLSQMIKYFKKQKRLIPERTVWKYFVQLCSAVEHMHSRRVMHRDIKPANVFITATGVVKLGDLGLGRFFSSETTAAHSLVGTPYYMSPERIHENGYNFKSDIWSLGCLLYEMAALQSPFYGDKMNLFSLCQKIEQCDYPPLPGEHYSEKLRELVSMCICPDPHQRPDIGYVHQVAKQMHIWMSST
T2 sequence (O75460 19-977): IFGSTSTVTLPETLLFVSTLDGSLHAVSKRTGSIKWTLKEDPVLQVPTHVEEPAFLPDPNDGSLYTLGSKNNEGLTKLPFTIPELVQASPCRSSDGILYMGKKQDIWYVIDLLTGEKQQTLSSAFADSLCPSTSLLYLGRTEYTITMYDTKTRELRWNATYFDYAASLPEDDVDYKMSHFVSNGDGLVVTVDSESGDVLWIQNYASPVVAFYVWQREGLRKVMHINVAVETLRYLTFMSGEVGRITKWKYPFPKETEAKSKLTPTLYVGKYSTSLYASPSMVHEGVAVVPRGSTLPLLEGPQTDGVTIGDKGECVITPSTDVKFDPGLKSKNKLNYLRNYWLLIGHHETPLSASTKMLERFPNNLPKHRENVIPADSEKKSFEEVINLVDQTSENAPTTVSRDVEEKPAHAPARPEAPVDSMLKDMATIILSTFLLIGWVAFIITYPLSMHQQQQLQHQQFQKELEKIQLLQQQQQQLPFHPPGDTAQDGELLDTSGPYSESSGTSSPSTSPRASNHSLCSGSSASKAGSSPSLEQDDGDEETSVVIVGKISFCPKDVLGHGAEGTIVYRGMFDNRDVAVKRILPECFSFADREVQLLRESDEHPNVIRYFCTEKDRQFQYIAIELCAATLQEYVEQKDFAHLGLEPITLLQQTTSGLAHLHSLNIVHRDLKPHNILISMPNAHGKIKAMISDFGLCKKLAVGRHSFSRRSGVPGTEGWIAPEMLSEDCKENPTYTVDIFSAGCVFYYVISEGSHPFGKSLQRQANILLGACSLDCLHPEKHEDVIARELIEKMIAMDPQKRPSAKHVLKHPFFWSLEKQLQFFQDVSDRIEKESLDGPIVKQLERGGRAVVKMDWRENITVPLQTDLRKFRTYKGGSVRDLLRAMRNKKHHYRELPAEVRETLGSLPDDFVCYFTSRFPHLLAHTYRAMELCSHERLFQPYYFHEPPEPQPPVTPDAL
T3 sequence (P10721 26-976 L576P): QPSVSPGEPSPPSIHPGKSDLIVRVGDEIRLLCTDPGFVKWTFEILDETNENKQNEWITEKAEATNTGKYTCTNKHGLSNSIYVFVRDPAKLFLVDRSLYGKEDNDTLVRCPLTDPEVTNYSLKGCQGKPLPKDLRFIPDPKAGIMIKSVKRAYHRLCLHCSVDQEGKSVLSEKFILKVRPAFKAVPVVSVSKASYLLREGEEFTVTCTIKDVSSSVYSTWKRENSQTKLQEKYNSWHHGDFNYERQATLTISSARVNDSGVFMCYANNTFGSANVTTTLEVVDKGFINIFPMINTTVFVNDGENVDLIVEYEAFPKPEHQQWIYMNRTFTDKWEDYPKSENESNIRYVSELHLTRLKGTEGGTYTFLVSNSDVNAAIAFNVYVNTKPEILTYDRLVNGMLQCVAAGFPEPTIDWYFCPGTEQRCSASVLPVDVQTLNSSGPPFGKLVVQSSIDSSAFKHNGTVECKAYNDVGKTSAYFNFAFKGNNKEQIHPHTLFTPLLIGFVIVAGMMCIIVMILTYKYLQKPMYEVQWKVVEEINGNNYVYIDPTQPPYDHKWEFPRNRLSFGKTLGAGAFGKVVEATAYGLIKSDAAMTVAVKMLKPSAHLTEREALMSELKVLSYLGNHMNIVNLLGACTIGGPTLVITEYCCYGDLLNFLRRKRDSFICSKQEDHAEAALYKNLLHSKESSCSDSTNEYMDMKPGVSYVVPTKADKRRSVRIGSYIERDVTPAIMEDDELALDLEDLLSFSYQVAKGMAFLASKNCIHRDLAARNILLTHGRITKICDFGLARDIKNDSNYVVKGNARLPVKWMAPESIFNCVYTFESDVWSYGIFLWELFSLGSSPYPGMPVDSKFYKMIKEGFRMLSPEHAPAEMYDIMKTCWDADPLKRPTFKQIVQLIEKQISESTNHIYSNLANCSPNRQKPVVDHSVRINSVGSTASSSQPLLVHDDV

With `Nc1cc(C(F)(F)F)c(-c2cc(N3CCOCC3)nc(N3CCOCC3)n2)cn1` [Buparlisib], the remaining activity at 1 µM in test [1] came out at 95%; in test [2], 100%; in test [3], 80%; in test [4] it was 97%; in test [5], 82%; in test [6], 100%. Moreover, in test [7], the remaining activity at 1 µM worked out at 84%. Besides, the remaining activity at 10 µM turned out to be 95% in test [1] (10 µM, read-out: RIOK3 (% of control at 10 µM)); 100% in test [2] (setting [8]); 24% in test [3] (setting [8]); 100% in test [4] (setting [8]); 88% in test [5] (10 µM, read-out: RIPK4 (% of control at 10 µM)); 100% in test [6] (10 µM, read-out: TNNI3K (% of control at 10 µM)). The remaining activity at 10 µM in test [7] (setting [8]) came out at 100%.

With `Cn1c(=O)n(-c2ccc(C(C)(C)C#N)cc2)c2c3cc(-c4cnc5ccccc5c4)ccc3ncc21` [Dactolisib, 2-methyl-2-[4-(3-methyl-2-oxo-8-quinolin-3-yl-2,3-dihydroimidazo[4,5-c]quinolin-1-yl)-phenyl] propionitrile], the remaining activity at 1 µM was 70% in test [1]; 100% in test [2]; 59% in test [3]; 100% in test [4]; 57% in test [5]; 76% in test [6]. In addition, the remaining activity at 1 µM in test [7] amounted to 100%.

`COc1ncc(-c2ccc3nccc(-c4ccnnc4)c3c2)cc1NS(=O)(=O)c1ccc(F)cc1F` [Omipalisib]: the remaining activity at 1 µM in test [1] was found to be 95%; in test [2], 73%; in test [3], 90%; in test [4], 100%; in test [5], 70%; in test [6] it was 100%. The remaining activity at 1 µM in test [7] is 100%.

With `FC(F)c1nc2ccccc2n1-c1nc(N2CCOCC2)nc(N2CCOCC2)n1` [ZSTK474, 2-(difluoromethyl)-1-[4,6-di(4-morpholinyl)-1,3,5-triazin-2-yl]-1H-benzimidazole], the remaining activity at 1 µM worked out at 71% in test [1]; 90% in test [2]; 100% in test [3]; 100% in test [4]; 77% in test [5]; 95% in test [6]. The remaining activity at 1 µM in test [7] worked out at 100%.

The values are drawn from PMC5564600 (Oncotarget, 2017).
